From patent US20240165097A1, “PHARMACEUTICAL COMPOSITION FOR THE TREATMENT OF ALZHEIMER'S DISEASE OR DEMENTIA” (Heptares Therapeutics Limited, priority 2021, published 2024)
Like-named read-outs stand apart in the source and are kept apart here.

Assay: Example C: HTL0018318 plasma and urine pharmacokinetics
Format: in vivo, human
Details: for CL renal / Cmax / AUC / AUC(0-inf) / half-life / Tmax: human, oral; for Cmax / AUC / AUC(0-inf) / half-life / Tmax: plasma; for AUC: Tau = 24 hrs, read-out: AUC0-tau (mean); for AUC(0-inf): read-out: AUC0-inf (mean)
Method: On the days between, only pre-dose PK samples were taken. The last PK blood sample was taken between 7-14 days after the last HTL0018318 dose (Table 7).
For these calculations, data of 15 mg and 25 mg HTL0018318 were grouped together. […]
All PK analyses were performed in Phoenix 64 build 6.4.0.768 using WinNonlin 6.4. Statistical analysis was performed in R version 3.3.1 (2016-06-21) Copyright (C) 2016 The R Foundation for Statistical Computing (Platform: x86_64-w64-mingw32/x64 64-bit).

[1] = fifth dose, 15 and 25 mg grouped
[2] = first dose, 15 and 25 mg grouped

Structure (SMILES): CCOC(=O)N1C2CCC1CC(N1CCC3(CC1)CNC(=O)C3)C2 (stereo not drawn) [HTL0018318, ethyl 3-(3-oxo-2,8-diazaspiro[4.5]dec-8-yl)-8-azabicyclo[3.2.1]octane-8-carboxylate]
- Ae (mean) (15 mg + DPZ, 1st dose): 39.9%
- CL/F (mean) (15 mg + DPZ, 1st dose): 14.7 L/h
- Ae (mean) (15 mg + DPZ, 5th dose): 51.5%
- CL/F (mean) (15 mg + DPZ, 5th dose): 14.0 L/h
- mean ratio AUC0-tau fifth dose / AUC0-inf first dose (15 mg alone): 1.04
- mean ratio AUC0-tau fifth dose / AUC0-tau first dose (15 mg alone): 1.27
- Ae (mean) (15 mg only, 1st dose): 39.2%
- CL/F (mean) (15 mg only, 1st dose): 14.2 L/h
- Ae (mean) (15 mg only, 5th dose): 47.9%
- CL/F (mean) (15 mg only, 5th dose): 14.0 L/h
- mean ratio AUC0-tau fifth dose / AUC0-inf first dose (15 mg, donepezil co-dosed): 1.04
- mean ratio AUC0-tau fifth dose / AUC0-tau first dose (15 mg, donepezil co-dosed): 1.23
- Ae (mean) (25 mg + DPZ, 1st dose): 41.1%
- CL/F (mean) (25 mg + DPZ, 1st dose): 17.0 L/h
- Ae (mean) (25 mg + DPZ, 5th dose): 47.7%
- CL/F (mean) (25 mg + DPZ, 5th dose): 16.0 L/h
- mean ratio AUC0-tau fifth dose / AUC0-inf first dose (25 mg alone): 1.06
- mean ratio AUC0-tau fifth dose / AUC0-tau first dose (25 mg alone): 1.23
- Ae (mean) (25 mg only, 1st dose): 32.6%
- CL/F (mean) (25 mg only, 1st dose): 17.6 L/h
- Ae (mean) (25 mg only, 5th dose): 44.1%
- CL/F (mean) (25 mg only, 5th dose): 16.6 L/h
- mean ratio AUC0-tau fifth dose / AUC0-inf first dose (25 mg, donepezil co-dosed): 1.03
- mean ratio AUC0-tau fifth dose / AUC0-tau first dose (25 mg, donepezil co-dosed): 1.21
- pharmacokinetic steady-state reached (daily dosing 15 or 25 mg): on or before the fifth daily dose
- ratio of AUC0-tau, in combination with donepezil vs alone [1]: 1.00
- ratio of Cmax, in combination with donepezil vs alone [1]: 1.04
- ratio of Cmin, in combination with donepezil vs alone [1]: 0.911
- ratio of Tmax, in combination with donepezil vs alone [1]: 0.974
- ratio of AUC0-24, in combination with donepezil vs alone [2]: 1.02
- ratio of Cmax, in combination with donepezil vs alone [2]: 1.05
- ratio of Tmax, in combination with donepezil vs alone [2]: 1.01
- CL renal (plasma and urine, 25 mg + DPZ, 1st dose): 129 mL/min
- CL renal (plasma and urine, 25 mg + DPZ, 5th dose): 113 mL/min
- CL renal (plasma and urine, 25 mg, 25 mg only, 1st dose): 104 mL/min
- CL renal (plasma and urine, 25 mg, 25 mg only, 5th dose): 109 mL/min
- Cmax (15 mg + DPZ, 1st dose): 91.2 ng/mL
- AUC (15 mg + DPZ, 1st dose): 932 ng·h/mL
- AUC(0-inf) (15 mg + DPZ, 1st dose): 1120 ng·h/mL
- half-life (15 mg + DPZ, 1st dose, read-out: Half-life (mean) (converted)): 8.97 h
- Tmax (15 mg + DPZ, 1st dose, read-out: Tmax (median)): 2.5 h
- Cmax (15 mg + DPZ, 5th dose): 109 ng/mL
- AUC (15 mg + DPZ, 5th dose): 1150 ng·h/mL
- half-life (15 mg + DPZ, 5th dose, read-out: Half-life (mean) (converted)): 11.6 h
- Tmax (15 mg + DPZ, 5th dose, read-out: Tmax (median)): 1.74 h
- Cmax (15 mg, 15 mg only, 1st dose): 83.4 ng/mL
- AUC (15 mg, 15 mg only, 1st dose): 919 ng·h/mL
- AUC(0-inf) (15 mg, 15 mg only, 1st dose): 1130 ng·h/mL
- half-life (15 mg, 15 mg only, 1st dose, read-out: Half-life (mean) (converted)): 9.25 h
- Tmax (15 mg, 15 mg only, 1st dose, read-out: Tmax (median)): 2 h
- Cmax (15 mg, 15 mg only, 5th dose): 103 ng/mL
- AUC (15 mg, 15 mg only, 5th dose): 1180 ng·h/mL
- half-life (15 mg, 15 mg only, 5th dose, read-out: Half-life (mean) (converted)): 13.8 h
- Tmax (15 mg, 15 mg only, 5th dose, read-out: Tmax (median)): 2.05 h
- Cmax (25 mg + DPZ, 1st dose): 139 ng/mL
- AUC (25 mg + DPZ, 1st dose): 1410 ng·h/mL
- AUC(0-inf) (25 mg + DPZ, 1st dose): 1710 ng·h/mL
- half-life (25 mg + DPZ, 1st dose, read-out: Half-life (mean) (converted)): 8.73 h
- Tmax (25 mg + DPZ, 1st dose, read-out: Tmax (median)): 1.76 h
- Cmax (25 mg + DPZ, 5th dose): 171 ng/mL
- AUC (25 mg + DPZ, 5th dose): 1740 ng·h/mL
- half-life (25 mg + DPZ, 5th dose, read-out: Half-life (mean) (converted)): 10.7 h
- Tmax (25 mg + DPZ, 5th dose, read-out: Tmax (median)): 2 h
- Cmax (25 mg, 25 mg only, 1st dose): 135 ng/mL
- AUC (25 mg, 25 mg only, 1st dose): 1370 ng·h/mL
- AUC(0-inf) (25 mg, 25 mg only, 1st dose): 1650 ng·h/mL
- half-life (25 mg, 25 mg only, 1st dose, read-out: Half-life (mean) (converted)): 8.52 h
- Tmax (25 mg, 25 mg only, 1st dose, read-out: Tmax (median)): 1.75 h
- Cmax (25 mg, 25 mg only, 5th dose): 162 ng/mL
- AUC (25 mg, 25 mg only, 5th dose): 1710 ng·h/mL
- half-life (25 mg, 25 mg only, 5th dose, read-out: Half-life (mean) (converted)): 13.4 h
- Tmax (25 mg, 25 mg only, 5th dose, read-out: Tmax (median)): 1.76 h
- Tmax (25 mg, 15 and 25 mg, with and without donepezil, read-out: Tmax, range over groups): 1.74 to 2.5 h
- half-life (25 mg, 15 and 25 mg, with and without donepezil, read-out: half-life following the fifth dose, range over groups): 10.7 to 13.8 h
- CL renal (urine and plasma, 15 mg + DPZ, 1st dose): 109 mL/min
- CL renal (urine and plasma, 15 mg + DPZ, 5th dose): 109 mL/min
- CL renal (urine and plasma, 15 mg, 15 mg only, 1st dose): 109 mL/min
- CL renal (urine and plasma, 15 mg, 15 mg only, 5th dose): 104 mL/min
